pIC50: −log10 of the molar value. Several values for one entry are separate records, joined by “and”; a condition that tells them apart may be missing. Identical values can stand only once.
Test system: 186277-243-T-J2-PDC complex spheroid viability
Assay: Anticancer human tumor 186277-243-T-J2-PDC patient-derived colon adenocarcinoma cell line growth inhibition [POLQ]
Settings: for viability, T/C: stronger effect = lower value
Description: Multicellular complex tumor spheroid response to Polymerase (POL) inhibitors (novobiocin, ART-558, RP6685) in combination with a variety of drugs and investigational agents in selected tumor cell lines
The POL inhibitors (novobiocin, ART-558, and RP6685) were evaluated both individually and in combination with standard of care and investigational anticancer small molecules within a complex spheroid model of solid tumors. . Complex spheroids include a stromal component modeled by human endothelial cells (HUVEC) and fibroblasts modeled by human mesenchymal stem cells (MSCs). The concentration ranges selected for each drug and investigational agent were based upon clinically achievable concentrations if the clinical Cmax of the agent was known.
Compounds. The drugs and investigational agents: novobiocin (NSC847541), ART-558 (NSC835418), RP-6685 (NSC848927), peposertib (NSC802822), ceralasertib (NSC780249), elimusertib (NSC800525), camonsertib (NSC841442), AZD-1390 (NSC803789), olaparib (NSC753686), talazoparib (NSC767125), rucaparib (NSC756644), sotorasib (NSC818433), MRTX-1133 (NSC836407), SN-38 (NSC673596), topotecan (NSC609699), epotoside (NSC141540), doxorubicin (NSC123127), gemcitabine (NSC613327), 5-fluorouracil (NSC19893), paclitaxel (NSC125973), vemurafenib (NSC761431), MSA-2 (NSC828583), SN-011 (NSC837082), adavosertib (NSC754352), prexasertib (NSC758257), carboplatin (NSC241240) and oxaliplatin (NSC266046), were obtained from the National Cancer Institute (NCI) Developmental Therapeutics Program Chemical Repository (21). The FDA-approved anticancer drug set is available from the Developmental Therapeutics Program at https://dtp.cancer.gov/organization/dscb/obtaining/. […] The stock solutions were prepared in dimethyl sulfoxide (DMSO, Sigma-Aldrich, St. Louis, MO, cat. D2650), except for the platinum compounds which were prepared in saline (Quality Biological, Gaithersburg, MD, cat. 114-055-101), at 800-fold the tested concentration and stored at -70 degrees C prior to their use. All drugs and investigational agents were tested over a range starting from a high concentration at or near the clinical Cmax and decreasing in half-log increments. If the clinical Cmax for an agent had not been determined, the highest concentration tested was 10 microM, except for SN-38, which was tested at a high concentration of 1 microM.
Cell Culture. All cells were maintained in an incubator at 37 degrees C and 5% CO2 with 95% humidity. The PDC lines were cultured according to standard operating procedures established by the NCI PDMR (https://pdmr.cancer.gov). Table 3 of the manuscript, lists the cell lines along with the number of the three cell types plated to form the mct-spheroids and media for tumor cell growth. After thawing, all PDC lines, except 997537-175-T-J1-PDC and 415267-285-R-J2-PDC, were cultured in Matrigel-coated flasks prepared with a working solution of 1X Ham's F-12 nutrient mix, without supplementation (Thermo Fisher Scientific, cat. 11765054), 100 U/mL penicillin-streptomycin (Thermo Fisher Scientific, cat. 15140122), and 2.5% Matrigel (Corning Inc., Corning, NY, cat. 354248) for the first three passages. The two PDC lines 997537-175-T-J1-PDC and 415267-285-R-J2-PDC were cultured on uncoated flasks. The 857933-349-R-J2-PDC line was cultured in 6C/Colon 1B media containing advanced DMEM/F-12 (Thermo Fisher Scientific, cat. 12634028), 10 mM HEPES (Thermo Fisher Scientific, cat. 15630080), 1X GlutaMAX supplement (Thermo Fisher Scientific, cat. 35050061), 0.1 mg/mL primocin (InvivoGen, San Diego, CA, cat. ant-pm-2), 10% defined fetal bovine serum, heat inactivated (HyClone Laboratories Inc., Logan, UT, cat. SH30070.03HI), 50% L-WRN conditioned media (ATCC, cat. CRL-3276), 1.25 mM N-Acetyl-L-cysteine (Sigma-Aldrich, cat. A9165), 10 mM nicotinamide (Sigma-Aldrich, cat. N0636), 1X B-27 supplement (Thermo Fisher Scientific, cat. 17504044), 1X N-2 supplement (Thermo Fisher Scientific, cat. […]
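Also: spheroids exposed to compounds for seven days.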
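For viability, T/C in this document: 100% = DMSO vehicle control viability.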

## C#Cc1c(F)ccc2cc(O)cc(-c3ncc4c(N5CC6CCC(C5)N6)nc(OCC56CCCN5CC(F)C6)nc4c3F)c12 (stereo unspecified) + COC1C(OC(N)=O)C(O)C(Oc2ccc3c(O)c(NC(=O)c4ccc(O)c(CC=C(C)C)c4)c(=O)oc3c2C)OC1(C)C
Curve of first compound, second compound 0.0316 µM
  pIC50: 7.06
Curve of first compound, second compound 0.1 µM
  pIC50: 7.04
Curve of first compound, second compound 0.316 µM
  pIC50: 7.01
Curve of first compound, second compound 1 µM
  pIC50: 7.02
Curve of first compound, second compound 3.16 µM
  pIC50: 7.05
Curve of first compound, second compound 10 µM
  pIC50: 7.13
Second compound 0.0316 µM, first compound 0.0316 µM
  viability, T/C: 78.8%
Second compound 0.0316 µM, first compound 0.1 µM
  viability, T/C: 47.2%
Second compound 0.0316 µM, first compound 0.316 µM
  viability, T/C: 17.3%
Second compound 0.0316 µM, first compound 1 µM
  viability, T/C: 13.3%
Second compound 0.0316 µM, first compound 3.16 µM
  viability, T/C: 5.89%
Second compound 0.0316 µM, first compound 10 µM
  viability, T/C: 3.8%
Second compound 0.1 µM, first compound 0.0316 µM
  viability, T/C: 73.6%
Second compound 0.1 µM, first compound 0.1 µM
  viability, T/C: 48.1%
Second compound 0.1 µM, first compound 0.316 µM
  viability, T/C: 24.4%
Second compound 0.1 µM, first compound 1 µM
  viability, T/C: 10.3%
Second compound 0.1 µM, first compound 3.16 µM
  viability, T/C: 8.42%
Second compound 0.1 µM, first compound 10 µM
  viability, T/C: 3.79%
Second compound 0.316 µM, first compound 0.0316 µM
  viability, T/C: 87.3%
Second compound 0.316 µM, first compound 0.1 µM
  viability, T/C: 49.5%
Second compound 0.316 µM, first compound 0.316 µM
  viability, T/C: 21.1%
Second compound 0.316 µM, first compound 1 µM
  viability, T/C: 9.93%
Second compound 0.316 µM, first compound 3.16 µM
  viability, T/C: 5.5%
Second compound 0.316 µM, first compound 10 µM
  viability, T/C: 3.94%
Second compound 1 µM, first compound 0.0316 µM
  viability, T/C: 92.4%
Second compound 1 µM, first compound 0.1 µM
  viability, T/C: 48.4%
Second compound 1 µM, first compound 0.316 µM
  viability, T/C: 15.6%
Second compound 1 µM, first compound 1 µM
  viability, T/C: 8.5%
Second compound 1 µM, first compound 3.16 µM
  viability, T/C: 5.97%
Second compound 1 µM, first compound 10 µM
  viability, T/C: 3.63%
Second compound 3.16 µM, first compound 0.0316 µM
  viability, T/C: 73.6%
Second compound 3.16 µM, first compound 0.1 µM
  viability, T/C: 47.1%
Second compound 3.16 µM, first compound 0.316 µM
  viability, T/C: 19.5%
Second compound 3.16 µM, first compound 1 µM
  viability, T/C: 7.53%
Second compound 3.16 µM, first compound 3.16 µM
  viability, T/C: 5.69%
Second compound 3.16 µM, first compound 10 µM
  viability, T/C: 3.42%
Second compound 10 µM, first compound 0.0316 µM
  viability, T/C: 74.3%
Second compound 10 µM, first compound 0.1 µM
  viability, T/C: 42%
Second compound 10 µM, first compound 0.316 µM
  viability, T/C: 18%
Second compound 10 µM, first compound 1 µM
  viability, T/C: 9.65%
Second compound 10 µM, first compound 3.16 µM
  viability, T/C: 8.31%
Second compound 10 µM, first compound 10 µM
  viability, T/C: 3.67%

## O=C(Nc1ccc(O)c(NS(=O)(=O)c2ccc(F)cc2)c1)c1ccc(-c2ccccc2)cc1
Compound 0.0316 µM
  viability, T/C: 108% and 109% and 99.2%
Compound 0.1 µM
  viability, T/C: 95.9% and 81.3% and 96.8%
Compound 0.316 µM
  viability, T/C: 103% and 90% and 102%
Compound 1 µM
  viability, T/C: 93.1% and 95.4% and 95.7%
Compound 3.16 µM
  viability, T/C: 114% and 98.8% and 102%
Compound 10 µM
  viability, T/C: 98% and 116% and 94.2%
Curve of compound
  pIC50: < 5.00

## CC[C@@]1(O)C(=O)OCc2c1cc1n(c2=O)Cc2cc3c(CN(C)C)c(O)ccc3nc2-1
Compound 0.000316 µM
  viability, T/C: 96.6% and 87.7% and 89.5%
Compound 0.001 µM
  viability, T/C: 91.4% and 93.5% and 116%
Compound 0.00316 µM
  viability, T/C: 112% and 111% and 129%
Compound 0.01 µM
  viability, T/C: 119% and 125% and 112%
Compound 0.0316 µM
  viability, T/C: 71.8% and 125% and 61.7%
Compound 0.1 µM
  viability, T/C: 48.8% and 88.5% and 38.6%
Curve of compound
  pIC50: 7.03 and < 7.00 and 7.25
